# Data reported in US10478445B2, “Boronic acid derivatives of resveratrol for activating deacetylase enzymes” (Georgetown University, priority 2013, dated 2019).
# Legend:
# [1] = biological target: T1, purified human SIRT1 enzyme (Homo sapiens, UniProt Q96EB6); details: reported; cited from earlier work
# T1 construct: purchased Enzo Life Sciences
# T1 sequence (Q96EB6 1-747): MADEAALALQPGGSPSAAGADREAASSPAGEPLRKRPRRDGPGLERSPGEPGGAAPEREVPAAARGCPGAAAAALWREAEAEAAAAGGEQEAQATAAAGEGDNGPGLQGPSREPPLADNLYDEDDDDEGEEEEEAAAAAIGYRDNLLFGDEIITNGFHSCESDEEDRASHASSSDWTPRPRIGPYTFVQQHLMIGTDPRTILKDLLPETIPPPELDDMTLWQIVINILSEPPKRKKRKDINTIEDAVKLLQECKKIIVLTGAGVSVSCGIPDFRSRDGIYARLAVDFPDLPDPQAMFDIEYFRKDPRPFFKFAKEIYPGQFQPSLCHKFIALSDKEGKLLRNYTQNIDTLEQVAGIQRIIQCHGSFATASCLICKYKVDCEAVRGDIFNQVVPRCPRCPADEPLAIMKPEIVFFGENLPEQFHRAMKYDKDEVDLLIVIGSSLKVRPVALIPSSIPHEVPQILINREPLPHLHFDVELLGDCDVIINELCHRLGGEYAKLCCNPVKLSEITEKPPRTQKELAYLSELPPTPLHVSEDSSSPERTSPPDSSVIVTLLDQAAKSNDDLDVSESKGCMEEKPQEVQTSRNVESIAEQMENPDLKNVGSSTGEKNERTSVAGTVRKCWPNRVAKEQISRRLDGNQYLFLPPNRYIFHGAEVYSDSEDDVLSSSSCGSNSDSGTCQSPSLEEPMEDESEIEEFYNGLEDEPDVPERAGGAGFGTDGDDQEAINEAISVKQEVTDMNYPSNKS
# [2] = system: acetyl-p53; details: reported; cited from earlier work
# [3] = biological target: T1, purified human SIRT1 enzyme; experiment: In vitro SIRT assay (Fluor-de-Lys-SIRT1 deacetylase assay); type: biochemical; details: 50 μM of suramin added to reaction
# Description: The Fluor-de-Lys-SIRT1 and SIRT2 deacetylase assay were performed as manufacturer's instruction (Enzo Life Sciences, Farmingdale, N.Y.). For competition assay, 50 μM of suramin was added to reaction.
# [4] = system: mtp53; experiment: Western blot analysis of acetyl-mtp53 (K382) and mtp53 level; type: cell-based; details: HS578T; 10 μM suramin 1 hr, then 1 μM YK-3-237 23 hr
# Description: Preparation of cell lysates and western blot analyses were performed. Antibodies were obtained from the following sources: Ac-p53 (K382; #2525), Ac-α-tubulin (K40; #3971), phospho-ACC (S78; #3661), and ACC (#3676) from Cell Signaling (Danvers, Mass.); PARP (#556494) from BD Pharmingen (San Jose, Calif.); p53 (V1003) from Biomeda (Foster City, Calif.); ERα (sc-543) and SIRT1 (sc-15404) from Santa Cruz (Santa Cruz, Calif.); α-tubulin, β-Actin (A1978), and horseradish peroxidase-conjugated secondary antibodies from Sigma (St. Louis, Mo.). Chemiluminescence reagent was obtained from Santa Cruz or Thermo Scientific (Rockford, Ill.).
Structure (SMILES),in vitro SIRT1 activity toward nascent p53 peptide [1],acetyl-p53 in cells [2],effect on YK-3-237-mediated SIRT1 activation (competition assay) [3],effect of pre-treatment on YK-3-237-mediated deacetylation and reduction of mtp53 [4]
O=C(Nc1ccccc1-c1cn2c(CN3CCNCC3)csc2n1)c1cnc2ccccc2n1 [SRT1720],could not activate in vitro SIRT1 activity toward nascent p53 peptide,reduce acetyl-p53 in cells,,
Cc1ccc(C(=O)Nc2ccc(S(=O)(=O)O)c3cc(S(=O)(=O)O)cc(S(=O)(=O)O)c23)cc1NC(=O)c1cccc(NC(=O)Nc2cccc(C(=O)Nc3cc(C(=O)Nc4ccc(S(=O)(=O)O)c5cc(S(=O)(=O)O)cc(S(=O)(=O)O)c45)ccc3C)c2)c1 [suramin],,,antagonized YK-3-237-mediated SIRT1 activation,reversed both deacetylation of mtp53 (K382) and reduction of mtp53 protein
